Assay results: ChEMBL document CHEMBL4828751, “Discovery of novel tubulin/HDAC dual-targeting inhibitors with strong antitumor and antiangiogenic potency” (Eur J Med Chem, 2021)
pIC50: −log10 of the molar value. Active and inactive are the calls of the source. The calls are words filed in the database; no cut-off is given here.

Experiments:
HeLa = assay: Antiproliferative activity against human HeLa cells assessed as cell growth inhibition after 72 hrs by SRB assay; format: functional, cell-based
MGC-803 [1] = assay: Down regulation of p21 expression in human MGC-803 cells at 7.5 to 30 nM measured after 24 hrs by Western blot analysis; format: functional, cell-based; details: dose 7.5-30 nM
MGC-803 [2] = assay: Induction of apoptosis in human MGC-803 cells assessed as necrotic cells at 7.5 nM measured after 48 hrs by Annexin V-APC/PI double staining based flow cytometry assay (reference value: 0.57 %); format: functional, cell-based
MGC-803 [3] = assay: Induction of cell cycle arrest in human MGC-803 cells assessed as accumulation at G2/M phase at 7.5 nM incubated for 24 hrs by propidium iodide staining based flow cytometry (reference value: 37.03 %); format: functional
Danio rerio = organism: Danio rerio; assay: Antiangiogenic activity in 30hpf transgenic Tg(flk:EGFP) zebra fish embryos assessed as reduction in number of intersegmental vessels by confocal fluorescence microscopy analysis; format: functional, organism-based; details: Embryo, dose 0.1-0.6 µM
MGC-803 [4] = assay: Antitumor activity against CMTPX- labeled human MGC-803 cells xenografted in zebrafish assessed as inhibition of tumor growth measured after 72 hrs by fluorescence microscopic analysis; format: functional, cell-based; details: dose 25-100 nM
MGC-803 [5] = assay: Induction of apoptosis in human MGC-803 cells assessed as increase in cleaved Caspase-9 expression incubated for 24 hrs by Western blot analysis; format: functional, cell-based; details: dose 7.5-30 nM
MGC-803 [6] = assay: Inhibition of cell migration in human MGC-803 cells assessed as decrease in wound healing rate at 7.5 to 30 nM measured after 48 hrs by wound healing assay; format: functional, cell-based; details: dose 7.5-30 nM
MGC-803 [7] = assay: Induction of apoptosis in human MGC-803 cells assessed as early apoptotic cells at 7.5 nM measured after 48 hrs by Annexin V-APC/PI double staining based flow cytometry assay (reference value: 1.31 %); format: functional, cell-based
HUVEC [8] = assay: Inhibition of cell migration in HUVEC cells assessed as decrease in number of migrated endothelial cells at 5 to 20 nM measured after 48 hrs by transwell analysis; format: functional, cell-based; details: Homo sapiens, dose 5-20 nM
HUVEC [9] = assay: Antivascular activity against HUVEC assessed as inhibition of tube formation at 5 to 20 nM incubated for 48 hrs by […]; format: functional, cell-based; details: Homo sapiens, dose 5-20 nM
MGC-803 [10] = assay: Induction of cell cycle arrest in human MGC-803 cells assessed as accumulation at G1 phase at 7.5 nM incubated for 24 hrs by propidium iodide staining based flow cytometry (reference value: 45.67 %); format: functional
MCF7 = assay: Antiproliferative activity against human MCF7 cells assessed as cell growth inhibition after 72 hrs by SRB assay; format: functional, cell-based; details: MCF7, 72 h
MGC-803 [11] = assay: Induction of cell cycle arrest in human MGC-803 cells assessed as accumulation at G1 phase at 15 nM incubated for 24 hrs by propidium iodide staining based flow cytometry (reference value: 45.67 %); format: functional
MGC-803 [12] = assay: Induction of apoptosis in human MGC-803 cells assessed as viable cells at 7.5 nM measured after 48 hrs by Annexin V-APC/PI double staining based flow cytometry assay (reference value: 97.1 %); format: functional, cell-based
MGC-803 [13] = assay: Induction of mitochondrial membrane potential loss in human MGC-803 cells at 15 nM after 48 hrs by JC-1 staining based flow cytometric analysis (reference value: 86 %); format: functional
L02 = assay: Cytotoxicity against human L02 cells assessed as reduction in cell viability; format: cell-based
MGC-803 [14] = assay: Induction of cell cycle arrest in human MGC-803 cells assessed as accumulation at G2/M phase incubated for 24 hrs by propidium iodide staining based flow cytometry; format: functional; details: dose 7.5-30 nM
MGC-803 [15] = assay: Induction of apoptosis in human MGC-803 cells assessed as increase in Caspase-3 expression incubated for 24 hrs by Western blot analysis; format: functional, cell-based; details: dose 7.5-30 nM
THP-1 = assay: Cytotoxicity against human THP-1 cells assessed as reduction in cell viability; format: cell-based
MGC-803 [16] = assay: Down regulation of Pcdc2 expression in human MGC-803 cells at 7.5 to 30 nM measured after 24 hrs by Western blot analysis; format: functional, cell-based; details: dose 7.5-30 nM
MGC-803 [17] = assay: Induction of cell cycle arrest in human MGC-803 cells assessed as accumulation at S phase at 15 nM incubated for 24 hrs by propidium iodide staining based flow cytometry (reference value: 17.3 %); format: functional
MGC-803 [18] = assay: Induction of apoptosis in human MGC-803 cells assessed as necrotic cells at 30 nM measured after 48 hrs by Annexin V-APC/PI double staining based flow cytometry assay (reference value: 0.57 %); format: functional, cell-based
Tubulin (Homo sapiens) = Tubulin (Homo sapiens) (UniProt P68371+Q9H4B7+P0DPH7+P68366+Q13509+Q71U36+P04350+Q3ZCM7+P07437+P68363+Q9BQE3+Q6PEY2+Q13885+Q9BVA1+Q9BUF5); assay: Inhibition of tubulin polymerization in human MGC-803 cells; format: cell-based
HEK-293T = assay: Cytotoxicity against human HEK293T cells assessed as reduction in cell viability; format: cell-based
MGC-803 [19] = assay: Induction of apoptosis in human MGC-803 cells assessed as late apoptotic cells at 30 nM measured after 48 hrs by Annexin V-APC/PI double staining based flow cytometry assay (reference value: 1.05 %); format: functional, cell-based
MGC-803 [20] = assay: Induction of mitochondrial membrane potential loss in human MGC-803 cells at 30 nM after 48 hrs by JC-1 staining based flow cytometric analysis (reference value: 86 %); format: functional
MGC-803 [21] = assay: Induction of apoptosis in human MGC-803 cells assessed as increase in cleaved Caspase-7 expression incubated for 24 hrs by Western blot analysis; format: functional, cell-based; details: dose 7.5-30 nM

pIC50 (HeLa): 7.30
pIC50 (MCF7): 7.64
inhibition (Tubulin (Homo sapiens)): Active
SMILES: COc1ccc(/C=C\c2cc(OC)c(OC)c(OC)c2)cc1/C=C/C(=O)Nc1ccccc1N
Activity (MGC-803 [1]): Active
Activity (MGC-803 [2]): Active
Activity (MGC-803 [3]): Dose-Dependent Effect
Activity (MGC-803 [3]; record 2): 43.82%
Activity (Danio rerio): Dose-Dependent Effect
inhibition (MGC-803 [4]): Dose-Dependent Effect
Activity (MGC-803 [5]): Dose-Dependent Effect
inhibition (MGC-803 [6]): Active
Activity (MGC-803 [7]): Active
inhibition (HUVEC [8]): Active
Activity (HUVEC [9]): Active
Activity (MGC-803 [10]): 43.58%
Activity (MGC-803 [11]): 39.14%
Activity (MGC-803 [12]): Active
Activity (MGC-803 [13]): 63.6%
pIC50 (L02): 6.25
Activity (MGC-803 [14]): Dose-Dependent Effect
Activity (MGC-803 [15]): Dose-Dependent Effect
pIC50 (THP-1): 6.71
Activity (MGC-803 [16]): Active
Activity (MGC-803 [17]): 12.7%
Activity (MGC-803 [18]): Active
pIC50 (HEK-293T): 6.45
Activity (MGC-803 [19]): Active
Activity (MGC-803 [20]): 34.5%
Activity (MGC-803 [21]): Dose-Dependent Effect
